# Key:
# Assay in all cases: relative viability (nuclei count vs DMSO), 5 days (fraction); higher = more cells survive
# Quizartinib + OSI-027 = compound: CC(C)(C)c1cc(NC(=O)Nc2ccc(-c3cn4c(n3)sc3cc(OCCN5CCOCC5)ccc34)cc2)no1 [Quizartinib] + COc1cccc2cc(-c3nc([C@H]4CC[C@H](C(=O)O)CC4)n4ncnc(N)c34)[nH]c12 [OSI-027] (partner 0.5 µM)
# In short: (§1)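 Relative viability is defined as nuclei in treated wells over nuclei in vehicle wells. Duplicate plates were run and medians reported. Lung cancer cell lines in 1536-well plates were dosed by pin tool one day after seeding, with one drug or with a fixed anchor-drug dose plus five library-drug doses (not always all listed) in √10 steps, and nuclei were counted after 5 days.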
# Quizartinib + Pictilisib = compound: CC(C)(C)c1cc(NC(=O)Nc2ccc(-c3cn4c(n3)sc3cc(OCCN5CCOCC5)ccc34)cc2)no1 [Quizartinib] + CS(=O)(=O)N1CCN(Cc2cc3nc(-c4cccc5[nH]ncc45)nc(N4CCOCC4)c3s2)CC1 [Pictilisib] (partner 1 µM)
# In short: as §1
# YM155 + Dasatinib = compound: COCC[n+]1c2c(n(Cc3cnccn3)c1C)C(=O)c1ccccc1C2=O [YM155] + Cc1nc(Nc2ncc(C(=O)Nc3c(C)cccc3Cl)s2)cc(N2CCN(CCO)CC2)n1 [Dasatinib] (partner 0.075 µM)
# In short: as §1
# YM155 + Lapatinib = compound: COCC[n+]1c2c(n(Cc3cnccn3)c1C)C(=O)c1ccccc1C2=O [YM155] + CS(=O)(=O)CCNCc1ccc(-c2ccc3ncnc(Nc4ccc(OCc5cccc(F)c5)c(Cl)c4)c3c2)o1 [Lapatinib] (partner 2 µM)
# In short: as §1
Cell Line,relative viability (Quizartinib + OSI-027; first compound 0.001 µM),relative viability (Quizartinib + OSI-027; first compound 0.003162 µM),relative viability (Quizartinib + OSI-027; first compound 0.01 µM),relative viability (Quizartinib + OSI-027; first compound 0.03162 µM),relative viability (Quizartinib + OSI-027; first compound 0.1 µM),relative viability (Quizartinib + Pictilisib; first compound 0.001 µM),relative viability (Quizartinib + Pictilisib; first compound 0.003162 µM),relative viability (Quizartinib + Pictilisib; first compound 0.01 µM),relative viability (Quizartinib + Pictilisib; first compound 0.03162 µM),relative viability (Quizartinib + Pictilisib; first compound 0.1 µM),relative viability (YM155 + Dasatinib; first compound 0.002 µM),relative viability (YM155 + Dasatinib; first compound 0.006325 µM),relative viability (YM155 + Dasatinib; first compound 0.02 µM),relative viability (YM155 + Dasatinib; first compound 0.06325 µM),relative viability (YM155 + Lapatinib; first compound 0.002 µM),relative viability (YM155 + Lapatinib; first compound 0.006325 µM),relative viability (YM155 + Lapatinib; first compound 0.02 µM),relative viability (YM155 + Lapatinib; first compound 0.06325 µM)
H3255,0.502,0.589,0.628,0.62,0.433,0.486,0.404,0.507,0.471,0.47,0.379,0.339,0.534,0.405,0.24,0.241,0.265,0.263
NCI-H1755,0.591,0.645,0.79,0.793,0.701,0.39,0.439,0.416,0.401,0.436,0.449,0.4,0.467,0.453,1.04,1.03,1.01,1.04
IA-LM,,,,,,0.356,0.299,0.397,0.231,0.342,,,,,0.781,0.741,0.652,0.283
NCI-H23,,0.561,0.465,0.507,0.401,,0.464,0.49,0.568,0.441,0.634,0.692,0.785,0.601,0.877,1.09,0.736,0.313
NCI-H661,0.66,0.594,0.692,0.693,0.721,0.425,0.388,0.364,,0.467,0.742,0.802,0.925,0.749,0.522,0.575,0.575,0.421
PC-14,0.737,0.754,1,,0.882,0.634,0.633,0.752,0.576,0.681,0.231,0.26,0.252,0.114,0.306,0.295,0.297,0.355
NCI-H647,0.627,0.654,0.689,0.596,0.648,0.466,0.434,0.536,,0.474,0.151,0.241,0.192,0.149,1.13,1.08,0.799,0.405
NCI-H1792,,0.73,0.707,0.589,0.733,0.317,0.247,0.281,0.235,0.385,0.83,0.606,0.782,0.941,0.95,0.92,0.943,0.895
SW 900,0.533,0.508,,0.512,0.569,,,,,,0.443,0.523,0.845,0.666,,,,
EKVX,0.43,0.691,0.656,0.674,0.728,0.464,0.478,0.471,0.407,0.476,0.647,0.539,0.491,0.62,0.214,0.286,0.221,0.182
COR-L23,0.743,0.73,0.946,0.696,0.768,0.535,0.758,0.698,0.589,0.763,0.503,0.463,0.367,0.221,0.837,0.917,0.503,0.15
NCI-H1355,0.361,0.449,0.389,0.377,0.4,0.352,0.418,0.41,0.426,0.5,0.731,0.748,0.781,0.801,0.934,1.04,0.996,1.02
NCI-H2085,0.784,0.648,0.662,0.778,0.525,0.5,0.504,0.479,0.595,0.523,0.287,0.224,0.23,0.211,0.746,0.752,0.614,0.315
A-427,,0.446,0.437,0.484,0.529,0.702,0.709,0.708,0.68,0.668,0.688,0.734,0.839,0.818,1,0.994,1.07,0.987
LOU-NH91,0.673,0.749,0.712,0.742,0.767,0.431,0.559,0.521,0.465,0.545,0.539,0.62,0.569,0.599,0.828,0.778,0.778,0.788
CAL-12T,0.658,0.683,0.862,0.503,0.846,0.47,0.536,0.308,0.398,0.547,0.255,0.615,0.602,0.393,,0.768,0.61,0.588
NCI-H520,0.245,0.231,0.292,0.233,0.272,0.306,0.273,0.307,0.287,0.245,0.197,0.174,0.217,0.185,0.801,0.733,1.16,1.02
LCLC-103H,0.432,0.503,0.422,0.475,0.487,0.535,0.733,0.591,0.547,0.546,0.446,0.456,0.474,0.531,,,,
NCI-H1651,0.672,0.584,0.637,0.632,0.742,0.42,0.626,0.588,0.423,0.625,0.437,0.372,0.442,0.39,0.869,0.861,0.726,0.601
NCI-H2347,0.234,0.434,0.365,0.377,0.516,0.628,0.958,0.793,0.633,0.783,0.323,0.321,0.35,0.334,0.917,0.914,0.997,0.598
LC-2-ad,0.842,0.866,0.757,,0.626,0.398,0.516,0.351,0.323,0.276,0.529,0.547,0.674,0.649,0.997,0.92,0.946,0.907

Cell Line,relative viability (Quizartinib + OSI-027; first compound 0.001 µM),relative viability (Quizartinib + OSI-027; first compound 0.003162 µM),relative viability (Quizartinib + OSI-027; first compound 0.01 µM),relative viability (Quizartinib + OSI-027; first compound 0.03162 µM),relative viability (Quizartinib + OSI-027; first compound 0.1 µM),relative viability (Quizartinib + Pictilisib; first compound 0.001 µM),relative viability (Quizartinib + Pictilisib; first compound 0.003162 µM),relative viability (Quizartinib + Pictilisib; first compound 0.01 µM),relative viability (Quizartinib + Pictilisib; first compound 0.03162 µM),relative viability (Quizartinib + Pictilisib; first compound 0.1 µM),relative viability (YM155 + Dasatinib; first compound 0.002 µM),relative viability (YM155 + Dasatinib; first compound 0.006325 µM),relative viability (YM155 + Dasatinib; first compound 0.02 µM),relative viability (YM155 + Dasatinib; first compound 0.06325 µM),relative viability (YM155 + Lapatinib; first compound 0.002 µM),relative viability (YM155 + Lapatinib; first compound 0.006325 µM),relative viability (YM155 + Lapatinib; first compound 0.02 µM),relative viability (YM155 + Lapatinib; first compound 0.06325 µM)
NCI-H3122,,0.947,1.08,,0.877,0.625,0.534,0.608,0.626,0.58,0.548,0.641,0.857,0.932,1,0.997,1.01,1.08
NCI-H1563,0.734,0.701,0.78,0.696,0.667,0.719,0.68,0.649,,0.626,0.382,0.541,0.453,0.475,0.924,0.994,0.986,1.05
HCC-78,0.398,0.375,0.357,0.325,0.377,0.21,0.185,0.206,0.0784,0.216,0.313,0.487,0.477,0.47,0.672,0.806,0.968,0.833
LK-2,0.182,0.199,0.185,0.198,0.182,0.594,0.474,0.826,0.526,0.55,0.275,0.271,0.266,0.294,0.893,0.966,0.94,0.885
RERF-LC-KJ,0.536,0.534,0.592,0.341,0.521,0.468,0.586,0.735,0.538,0.515,0.755,0.836,0.851,0.78,0.755,0.853,0.88,0.821
NCI-H1944,0.407,0.476,0.327,0.395,0.387,0.347,0.327,0.319,0.322,0.31,0.201,0.202,0.208,0.24,0.842,0.724,0.767,0.82
ChaGo-K-1,0.574,0.613,0.61,0.514,0.584,0.49,0.905,0.669,,1.01,0.463,0.503,0.582,0.629,,,,
NCI-H1734,0.522,0.543,0.636,0.555,0.611,0.508,0.472,0.477,0.411,0.44,0.471,0.525,0.495,0.518,1.09,1.08,1.13,0.969
201T,0.421,0.691,0.692,0.412,0.615,0.668,0.678,0.669,0.68,0.695,0.562,0.616,0.558,0.609,1.02,0.992,0.956,0.96
HCC-827,0.749,0.77,0.945,0.798,0.79,0.93,1.01,1.14,0.983,0.908,0.337,0.262,0.308,0.345,0.169,0.198,0.177,0.191
LCLC-97TM1,0.567,0.466,0.538,0.588,0.563,,0.144,0.223,0.148,0.218,0.761,0.954,0.739,0.835,1.04,1.03,1,0.551
NCI-H441,0.424,0.669,0.564,,0.693,0.38,0.508,0.508,0.379,0.606,0.609,0.674,0.558,0.495,,,,
EBC-1,,,,,,0.423,0.285,0.406,0.37,0.452,,,,,0.229,0.203,0.208,0.196
NCI-H522,0.649,0.764,0.694,0.702,0.762,,,,,,0.877,0.818,0.915,0.9,,,,
NCI-H1623,0.457,0.419,0.41,0.383,0.412,,,,,,0.547,0.529,0.599,0.555,,,,
NCI-H1703,,,,,,0.3,0.183,0.216,0.154,0.24,,,,,1.11,0.982,0.452,0.179
NCI-H2342,0.664,0.592,0.603,0.68,0.621,,,,,,0.308,0.336,0.329,0.301,,,,
HCC-44,,0.641,0.416,0.475,0.549,0.669,0.516,0.56,0.626,0.555,,,,,0.994,0.998,1.02,1.08
A549,,,,,,0.457,0.441,0.598,0.211,0.614,,,,,0.93,0.872,0.598,0.0781
NCI-H1299,,,,,,0.835,0.735,0.797,0.726,0.881,,,,,0.949,0.962,0.908,0.176
Calu-6,,,,,,0.877,0.867,0.988,0.607,0.858,,,,,1.04,0.992,0.271,0.143

# — the supplement of paper PMC10307832
